According to PubChem BioAssay AID192 (DTP/NCI, 2004):
“And” between values parts separate entries of the source, which are not always exact repeats. Identical values can stand only once. Inconclusive results and toxic doses are left out.

Test system: BDF1 mice, B16 melanoma ip, median survival T/C
Experiment: NCI In Vivo Anticancer Drug Screen. Data for tumor model B16 Melanoma (intraperitoneal) in B6D2F1 (BDF1) mice
Conditions: endpoint: median survival time, higher = longer survival
Procedure, shortened: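 Survival or tumor size is measured after treatment of tumor-bearing mice and normalised to the vehicle-treated control group.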

[1] = dose: 25.0 mg/kg/injection, schedule: Q01DX009 (ip), vehicle: Klucel (hydroxypropylcellulose) (HPC)
[2] = dose: 100.0 mg/kg/injection, schedule: Q01DX009 (ip), vehicle: Klucel (hydroxypropylcellulose) (HPC)
[3] = dose: 200.0 mg/kg/injection, schedule: Q01DX009 (ip), vehicle: Klucel (hydroxypropylcellulose) (HPC)
[4] = dose: 400.0 mg/kg/injection, schedule: Q01DX009 (ip), vehicle: Klucel (hydroxypropylcellulose) (HPC)
[5] = dose: 100.0 mg/kg/injection, schedule: Q04DX003 (ip), vehicle: Klucel (hydroxypropylcellulose) (HPC)
[6] = dose: 200.0 mg/kg/injection, schedule: Q04DX003 (ip), vehicle: Klucel (hydroxypropylcellulose) (HPC)
[7] = dose: 400.0 mg/kg/injection, schedule: Q04DX003 (ip), vehicle: Klucel (hydroxypropylcellulose) (HPC)
[8] = dose: 50.0 mg/kg/injection, schedule: Q01DX009 (ip), vehicle: saline with Tween-80
[9] = dose: 100.0 mg/kg/injection, schedule: Q01DX009 (ip), vehicle: saline with Tween-80
[10] = dose: 100.0 mg/kg/injection, schedule: Q01DX009 (ip), vehicle: saline

## CCC[CH2][Sn]([CH2]CCC)([S]C#N)[S]C#N
dose: 0.75 mg/kg/injection, schedule: Q01DX009 (ip), vehicle: saline with Tween-80
  T/C: 98 % of control
dose: 1.5 mg/kg/injection, schedule: Q01DX009 (ip), vehicle: saline with Tween-80
  T/C: 101 % of control
dose: 3.0 mg/kg/injection, schedule: Q01DX009 (ip), vehicle: saline with Tween-80
  T/C: 98 % of control

## O=C(c1ccccc1Cl)N(Cc1ccccc1)c1ccccc1
[1]
  T/C: 93 % of control
dose: 50.0 mg/kg/injection, schedule: Q01DX009 (ip), vehicle: Klucel (hydroxypropylcellulose) (HPC)
  T/C: 93 % of control
[2]
  T/C: 90 % of control and 100 % of control

## CCOc1ccccc1NC(=O)Nc1cccc(Cl)c1
[2]
  T/C: 106 % of control
[3]
  T/C: 96 % of control
[4]
  T/C: 106 % of control

## CCOC1=C(Br)C=CN(S(=O)(=O)c2ccc(C)cc2)c2ccc(OC)cc21
[5]
  T/C: 96 % of control
[6]
  T/C: 90 % of control
[7]
  T/C: 91 % of control

## Cc1cccc(C)c1NC(=O)C(Cl)c1ccccc1 (stereo not given)
[2]
  T/C: 103 % of control
[3]
  T/C: 93 % of control
[4]
  T/C: 100 % of control

## CCC(=O)Oc1ccc(OCc2ccccc2)cc1
[5]
  T/C: 95 % of control
[6]
  T/C: 86 % of control
[7]
  T/C: 97 % of control

## CCOc1ccc(NC(=O)COc2ccc(Cl)cc2)cc1
[2]
  T/C: 103 % of control
[3]
  T/C: 109 % of control
[4]
  T/C: 93 % of control

## C[N+](C)(C)Cc1ccccc1
dose: 6.25 mg/kg/injection, schedule: Q01DX009 (ip), vehicle: Klucel (hydroxypropylcellulose) (HPC)
  T/C: 109 % of control
dose: 12.5 mg/kg/injection, schedule: Q01DX009 (ip), vehicle: Klucel (hydroxypropylcellulose) (HPC)
  T/C: 107 % of control
[1]
  T/C: 101 % of control

## CC(C)C(NC(=O)c1ccccc1)C(=O)O (stereo not given)
dose: 25.0 mg/kg/injection, schedule: Q04DX003 (ip), vehicle: Klucel (hydroxypropylcellulose) (HPC)
  T/C: 111 % of control
[8]
  T/C: 95 % of control
dose: 50.0 mg/kg/injection, schedule: Q04DX003 (ip), vehicle: Klucel (hydroxypropylcellulose) (HPC)
  T/C: 100 % of control
[2]
  T/C: 103 % of control
[9]
  T/C: 93 % of control
[5]
  T/C: 86 % of control
[3]
  T/C: 96 % of control

## COc1ccc(N=C(c2ccccc2)c2ccccc2)cc1
dose: 100.0 mg/kg/injection, schedule: Q04DX003 (ip), vehicle: saline with Tween-80
  T/C: 95 % of control
dose: 200.0 mg/kg/injection, schedule: Q04DX003 (ip), vehicle: saline with Tween-80
  T/C: 86 % of control
dose: 400.0 mg/kg/injection, schedule: Q04DX003 (ip), vehicle: saline with Tween-80
  T/C: 90 % of control

## CCN(CC)CCOc1ccc2c(c1)C(=O)c1cc(OCCN(CC)CC)ccc1-2
dose: 13.0 mg/kg/injection, schedule: Q01DX009 (ip), vehicle: saline
  T/C: 124 % of control
dose: 21.6 mg/kg/injection, schedule: Q01DX009 (ip), vehicle: saline
  T/C: 123 % of control
[10]
  T/C: 124 % of control

## OC(C1CO1)(C(F)(F)F)C(F)(F)F (stereo not given)
dose: 50.0 mg/kg/injection, schedule: Q01DX009 (ip), vehicle: saline
  T/C: 92 % of control
[10]
  T/C: 90 % of control
dose: 200.0 mg/kg/injection, schedule: Q01DX009 (ip), vehicle: saline
  T/C: 92 % of control

## O=NN(CCF)C(=O)N[C@H]1CCCC[C@H]1O
dose: 3.75 mg/kg/injection, schedule: Q01DX001 (ip), vehicle: saline
  T/C: 100 % of control
dose: 7.5 mg/kg/injection, schedule: Q01DX001 (ip), vehicle: saline
  T/C: 105 % of control
dose: 15.0 mg/kg/injection, schedule: Q01DX001 (ip), vehicle: saline
  T/C: 101 % of control
dose: 60.0 mg/kg/injection, schedule: Q01DX001 (ip), vehicle: saline
  T/C: 222 % of control

## O=C(CC(NC(=O)OCc1ccccc1)C(=O)O)OCc1ccccc1 (stereo not given)
dose: 25.0 mg/kg/injection, schedule: Q01DX009 (ip), vehicle: saline with Tween-80
  T/C: 93 % of control
[8]
  T/C: 104 % of control
[2]
  T/C: 102 % of control
[9]
  T/C: 102 % of control
[3]
  T/C: 106 % of control
dose: 200.0 mg/kg/injection, schedule: Q01DX009 (ip), vehicle: saline with Tween-80
  T/C: 87 % of control
